Data on two molecules can be found in patent publication US12605383B2, “Methods of treating cancer” (priority 2020, dated 2026).

Each structure is given as a SMILES string.

For data set [1], the system named is LLC tumor-specific T cells. Briefly: IFN-γ ELISpot assay of TILs from LLC tumors. The class given is in vivo, B6 mice. Conditions: 2.0×10^4 CD90.2+ TILs, day 7, co-cultured 1:1 with irradiated LLC cells.
The test system of data set [2] is LLC tumor microenvironment. Description: Flow cytometry of immune cells in LLC tumor tissues. The data set is classed as in vivo, B6 mice. Conditions: days 6 and 11.
Data set [3] deals with AE17 s.c. tumor. Description: Subcutaneous AE17 tumor model, tumor size and survival. The data set is classed as in vivo, B6 mice.
The test system of data set [4] is viral replication of vvTD and vvTD-IL36γ. The data set is classed as cell-based, vaccinia virus.
Data set [5] relates to LLC cells. Briefly: Cell viability (CCK8) assay, LLC cells. Conditions: LLC (KRASG12C mutant), 0.016 up to 7500 nM, 48 h. The class given is cell-based, murine.
The subject of data set [6] is H2122 cells. Description: Cell viability (CCK8) assay, H2122 cells. The data set is classed as cell-based, human. To be noted: H2122 (KRASG12C mutant), 0.016 up to 7500 nM, 48 h.
In data set [7] the test system is LLC s.c. tumor. Description: Subcutaneous LLC tumor model, tumor size and survival. The data set is classed as in vivo, B6 mice.
In data set [8] the test system is MC38 cells.
Data set [9] relates to MC38 s.c. tumor. Briefly: Subcutaneous MC38 tumor model, tumor size and survival. To be noted: for Median survival: MC38 s.c. tumor, FIG. 2F.
Data set [10] relates to AE17 cells. Briefly: Cell viability (CCK8) assay, AE17 cells. The class given is cell-based, murine. Conditions: AE17 (KRASG12C mutant), 0.016 up to 7500 nM, 48 h.
Data set [11] has as its system KRASG12C PDX models. To be noted: Janes et al. 2018; cited from earlier work.

With `C=CC(=O)N1CCN(c2nc(OC[C@@H]3CCCN3C)nc3c2CCN(c2cccc4cccc(C)c24)C3)C[C@@H]1CC#N` [MRTX1257], the “number of IFN-γ ELISpot spots” value in data set [1] was ~180 spots. Besides, the “CD8+ T cells in tumor tissue” value in data set [2] is on record as “no reduction”. Besides, the “Median survival” value in data set [3] (AE17 s.c. tumor, MRTX1257 60 mg/kg, FIG. 2E) came out at 40.5 days; in data set [3] (AE17 s.c. tumor, MRTX1257 100 mg/kg, FIG. 2E) it was 40 days; in [3] (AE17 s.c. tumor, MRTX1257 200 mg/kg, FIG. 2E), 47 days; in [3] (AE17 tumor, OV i.t. single dose, MRTX1257 60 mg/kg oral daily for 3 weeks, FIG. 3), 49.5 days; in [7] (LLC s.c. tumor, MRTX1257 60 mg/kg, FIG. 2D), 36 days; in [7] (LLC s.c. tumor, MRTX1257 100 mg/kg, FIG. 2D) it was 39.5 days. Also, the “Median survival” value in [7] (LLC s.c. tumor, MRTX1257 200 mg/kg, FIG. 2D) is 45 days; in data set [7] (LLC tumor, OV i.t. single dose, MRTX1257 60 mg/kg oral daily for 3 weeks, FIG. 3B), 39 days; in data set [7] (LLC tumor, combination with PD-1 blockade, FIG. 6E), 39 days; in [9] (MRTX1257 60 mg/kg), 24 days; in data set [9] (MRTX1257 100 mg/kg), 24 days; in [9] (MRTX1257 200 mg/kg), 22 days. Besides, the “inhibition of tumor growth” value is “good efficacy” in data set [3] (AE17 tumor model, 60-200 mg/kg, FIG. 2B); “good efficacy” in [7] (LLC tumor model, 60-200 mg/kg, FIG. 2A); “no effect” in data set [9] (MC38 tumor model, 60-200 mg/kg, FIG. 2C). Besides, the “effect on viral replication and accumulation of vvTD and vvTD-IL36γ” value in data set [4] is recorded as “small inhibitory effect”. In addition, the “sensitivity of cancer cells to MRTX1257” value in data set [5] is listed as “highly sensitive”; in data set [6], “more sensitive than A549 cells”; in data set [8] (MC38 (non-KRASG12C), 0.016 up to 7500 nM, 48 h), “less sensitive”; in [10], “highly sensitive”. The “antitumor effect (tumor size)” value in [7] (LLC model, MRTX1257 60 mg/kg oral, OVs 2.0e6 pfu/mouse intratumoral, FIG. 3A) is “significant antitumor effect”. Moreover, the “drug-mediated cytotoxicity over time” value in data set [8] (MC38, MRTX1257 at 100 nM, 24-72 h, versus LLC and AE17) was “much more resistant”.
`C=CC(=O)N1CCN(c2ncnc3c(F)c(-c4c(O)cccc4F)c(Cl)cc23)CC1` [ARS-1620]: in [11], the “in vivo antitumor effect” value is recorded as “tumor regression”.
